In US20090286740A1, “PEPTIDES AND DERIVATIVES THEREOF, THE MANUFACTURING THEREOF AS WELL AS THEIR USE FOR PREPARING A THERAPEUTICALLY AND/OR PREVENTIVELY ACTIVE PHARMACEUTICAL COMPOSITION” (FIBREX MEDICAL RESEARCH & DEVELOPMENT GMBH, priority 2008, published 2009):
Where no end group is shown, it is not given here.

T1: vascular endothelial (VE) cadherin (human, UniProt P33151 48-784)
T1 sequence (looked up): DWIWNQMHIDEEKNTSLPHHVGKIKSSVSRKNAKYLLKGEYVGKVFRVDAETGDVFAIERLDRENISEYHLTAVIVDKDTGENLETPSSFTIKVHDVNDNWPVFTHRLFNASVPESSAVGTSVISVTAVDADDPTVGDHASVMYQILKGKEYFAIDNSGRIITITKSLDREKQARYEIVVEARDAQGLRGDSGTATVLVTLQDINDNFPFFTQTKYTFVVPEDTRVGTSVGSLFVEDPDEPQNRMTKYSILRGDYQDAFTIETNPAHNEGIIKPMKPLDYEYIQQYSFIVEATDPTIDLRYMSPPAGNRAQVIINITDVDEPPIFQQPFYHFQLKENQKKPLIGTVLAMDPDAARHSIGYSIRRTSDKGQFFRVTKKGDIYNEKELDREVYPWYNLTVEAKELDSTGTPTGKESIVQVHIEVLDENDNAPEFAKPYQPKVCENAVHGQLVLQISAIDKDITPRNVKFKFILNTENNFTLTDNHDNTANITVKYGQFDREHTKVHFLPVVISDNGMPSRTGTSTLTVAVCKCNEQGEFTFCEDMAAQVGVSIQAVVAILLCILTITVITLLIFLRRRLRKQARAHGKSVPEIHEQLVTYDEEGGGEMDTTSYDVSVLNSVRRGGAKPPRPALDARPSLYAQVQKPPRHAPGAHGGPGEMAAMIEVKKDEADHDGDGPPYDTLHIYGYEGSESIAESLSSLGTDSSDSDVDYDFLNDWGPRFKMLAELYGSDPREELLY


What was measured:
[1] = test system: RhoA; assay: thrombin induced RhoA activation in HUVEC culture (active RhoA pull-down, blot); type: cell-based, human; conditions: 5 U/ml thrombin alone, 5 min
Description: The biological effect of the compounds was established in a model thrombin induced RhoA activation in human umbilical vein endothelial cell (HUVEC) culture.
HUVEC are grown to confluence under standard conditions. Before induction of Rho activity HUVEC were starved for 4 h by using IMDM (Gibco) without growth factor and serum supplements. After the starvation period 5 U/ml Thrombin (Calbiochem) or 5 U thrombin plus 50 μg/ml of test compound are added to the starvation medium for 1, 5 and 10 min. Active RhoA was isolated using Rho Assay Reagent from Upstate according to manufactures instructions. Isolates were separated on a 15% polyacrylamid gel and blotted on Nitrocellulose-Membrane (Bio-Rad). RhoA was dedected by using Anti-Rho (-A, -B, -C), clone55 from Upstate (1:500).

[2] = molecular target: T1, vascular endothelial (VE) cadherin; assay: cell-based or functional assay

Molecule | Relative RhoA stimulation compared to unstimulated control [1] | Relative RhoA stimulation compared to unstimulated control (thrombin-induced RhoA activation in HUVEC, Rho pull-down and blot; thrombin alone 5 min = 2.6) [2]
thrombin | 2.6 | 
GHRPLAPSLRPAPPPISGGGYR-OH [Gly-His-Arg-Pro-Leu-Ala-Pro-Ser-Leu-Arg-Pro-Ala-Pro-Pro-Pro-Ile-Ser-Gly-Gly-Gly-Tyr-Arg-OH] |  | 1.2 fold relative to unstimulated control
